# Patent publication US6080871A, “Sulfonamides and sulfamides as H3 receptor antagonists” (James Black Foundation Limited, priority 1996, dated 2000)
# Read-outs that look alike come from different tables or passages of the source.
# Experiments:
# [1] = target: T1, H3 receptor (Cavia porcellus, UniProt Q9JI35); test: H3 receptor bioassay (functional assay), guinea pig ileal longitudinal muscle myenteric plexus; type: cell-based; details: antagonism of R-(α)-methylhistamine E/[A] curve, Schild's methods, electrically stimulated guinea pig ileum, variance ±0.15 log units; for Kb: read-out: pKB (functional assay) (converted)
# T1 construct: the longitudinal muscle layer and adhering myenteric plexus was teased away; from tissue; host or cells: ileal longitudinal muscle with adhering myenteric plexus of male Dunkin-Hartley guinea pigs
# T1 sequence (Q9JI35 whole entry): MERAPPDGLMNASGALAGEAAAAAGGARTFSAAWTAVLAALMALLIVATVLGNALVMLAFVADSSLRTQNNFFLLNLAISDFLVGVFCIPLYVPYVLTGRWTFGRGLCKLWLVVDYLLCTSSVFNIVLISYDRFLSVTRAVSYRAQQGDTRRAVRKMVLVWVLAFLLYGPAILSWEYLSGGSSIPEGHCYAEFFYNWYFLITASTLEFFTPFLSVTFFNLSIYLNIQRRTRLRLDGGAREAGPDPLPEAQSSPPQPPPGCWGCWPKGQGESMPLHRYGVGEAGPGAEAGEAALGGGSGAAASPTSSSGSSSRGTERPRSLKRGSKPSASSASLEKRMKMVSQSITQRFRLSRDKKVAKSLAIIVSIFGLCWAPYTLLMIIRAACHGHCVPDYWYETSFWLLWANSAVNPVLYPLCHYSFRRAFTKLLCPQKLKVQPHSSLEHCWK
# Experimental: The biological activity of the compounds of the examples was measured using the ileal longitudinal muscle, myenteric plexus assay described by Paton and Aboo Zar (J. Physiol. 194, 13-33 (1968)). Male Dunkin-Hartley guinea pigs (250-300 g) were employed. Briefly, a 50 cm portion of ileum proximal to the caecum was removed, after discarding the terminal 20 cm. Ileal segments (3 cm) were cleaned by passing Krebs-Henseleit buffer containing 3 μM mepyramine gently through the ileum using a Pasteur pipette (size: 13.8 cm length, 0.65 cm diameter). To avoid unnecessary damage to the tissue, Krebs-Henseleit buffer was passed through the ileal segment, while it was lying horizontally on a petri dish. Therefore, the ileum was not over-distended and the buffer flowed through with ease. Each segment was then passed over a Pasteur pipette and the longitudinal muscle layer and adhering myenteric plexus was teased away using moist cotton wool, by stroking tangentially away from the mesenteric attachment. The tissues were suspended in 20 ml organ baths containing Krebs-Henseleit buffer at 37±1° C. and gassed with […]. The tissues were ligated to two parallel stainless steel wires, situated between two platinum electrodes (0.76 cm length, 0.06 cm diameter). All measurements were recorded isometrically (Grass FTO3 transducer). Following an initial loading tension of 1 g, the tissues were stimulated with electrical pulses at a frequency of 0.1 Hz and a pulse duration of 0.5msec, as described by Kosterlitz & Watt (1968). Initially, the tissues were stimulated at supramaximal (1.3 fold times maximal) voltage for a period of 30 min and then the tissues were washed and re-stimulated. A "sighter dose" of the selective histamine H3 -receptor agonist, R-(α)-methylhistamine(0.3 μM) (Arrang et al., 1987), was administered. Upon generation of response, the "sighter dose" was removed from the tissues by "washout" (6 washes over 60 min) and during this period the electrical stimulation was switched off. The tissues were then re-stimulated and allowed to stabilise prior to the addition of drug treatments, which were allocated on a randomised block basis to the organ baths. Following the incubation period, a single cumulative E/[A] curve was obtained. The experimental E/[A] curve data was expressed as the percentage inhibition of the peak height of electrically-stimulated contraction. Antagonist affinity values were calculated from the degree of rightward shift of the R-(α)-methylhistamine E/[A] curves using Schild's methods (Arunlatcshama & Schild, 1949).
# (§1) Typical variance in the functional assay is ±0.15 log units. Typical variance in the binding assay is ±0.12 log units. This means that if the discrepancy between the two assays is greater than about 0.5 log units, then this difference on average is significant.
# [2] = target: T2, Histamine H3 (Cavia porcellus, UniProt Q9JI35); test: Histamine H3 radioligand binding assay, [3H]-R-α-methylhistamine, guinea pig ileum longitudinal muscle myenteric plexus membranes
# T2 construct: ileum longitudinal muscle myenteric plexus membranes; from tissue; host or cells: ileum longitudinal muscle myenteric plexus membranes of male Dunkin Hartley guinea pigs
# T2 sequence (Q9JI35 whole entry): as above
# Experimental: Histamine H3 Radioligand Binding Assay
# Male Dunkin Hartley guinea pigs (200-300 g) were used. The small intestine was rapidly removed (cut ~5 cm from caecum and 5 cm from stomach) and placed in ice-cold 20 mM Hepes-NaOH buffer (pH7.4 at 21±3° C.). The tissue was cut into ~10 cm segments, flushed through with ice-cold 20 mM Hepes-NaOH buffer and placed in a beaker containing fresh buffer at 4° C. 10 cm segments of ileum were threaded onto a glass pipette and the longitudinal muscle myenteric plexus was peeled away from the circular muscle using damp cotton-wool. Longitudinal muscle myenteric plexus was immediately placed in ice-cold Viaspan® solution (~100 ml for tissue from 3 guinea pigs) and placed in the refrigerator for 24 hours.
# Pre-soaked tissue was weighed and minced with scissors. The tissue was then homogenised in Viaspan® using a polytron (Kinematica AG; PT-DA 3020/2TS, 3×~1-2 s). 50 ml of 500 mM Tris HCl (pH6.9 at 21±3° C.) was added to the tissue and the mixture centrifuged at 39,800×g for 12 min at 4° C. The supernatant was discarded and rehomogenised in 100 ml ice-cold 20 mM Hepes-NaOH buffer (pH7.4 at 21±3° C.) using a teflon-in-glass homogeniser (setting 10; 3×). The homogenate was recentrifuged at 39,800×g and the pellet resuspended in 20 mM Hepes-NaOH buffer (pH7.4 at 21±3° C.), to a tissue concentration of 50 mg.ml^-1, using a polytron (Brinkman, PT10, 3×~1 s).
# Guinea pig ileum longitudinal muscle myenteric plexus membranes (400 μl) were incubated for 165 min at 21±3° C. in a final volume of 500 μl with 20 mM Hepes-NaOH buffer containing [^3 H]-R-α-methylhistamine (50 μl; 3 nM) and competing compound. Total and non-specific binding of [^3 H]-R-α-methylhistamine were defined using 50 μl of buffer and 50 μl of 10 μM thioperamide, respectively. The assay was terminated by rapid filtration through Whatman GF/B filters, presoaked (2 hr) in 0. 1% polyethyleneimine,using a Brandell Cell Harvester. The filters were washed (3×3 ml) with ice-cold 50 mM Tris-HCl (pH6.9 at 21±3° C.), transferred into scintillation vials, 5 ml liquid scintillation cocktail was added and after 4 hours the bound radioactivity was determined by counting (4 min) in a Beckman liquid scintillation counter.
# Data are analysed using GraphPad prism and the general equation for a competition curve with variable Hill slope (nH).
# Y=Non-specific binding+(Total binding-Non-specific binding)/1+10^((logIC.sbsp.50^-X).n.sbsp.H^)
# X is the log concentration of competing compound, Y is the binding obtained at each concentration of X, pIC50 is the concentration of the competitor required to compete for half of the specific binding.
# The IC50 is converted to the K1 using the Cheng Prusoff equation, […]
# IC50 is the concentration of competitor required to compete for half the specific binding, L is the radioligand concentration used, KD is the equilibrium dissociation constant for the radioligand determined by saturation experiments.
# as §1
# [3] = 3 nM [3H]-R-α-methylhistamine, 165 min, 21±3° C., Cheng Prusoff, variance ±0.12 log units
# [4] = 3 nM [3H]-R-α-methylhistamine, 165 min, 21±3° C., Cheng Prusoff, variance ±0.12 log units, read-out: pK1 (binding assay) (converted)
Compound,Kb [1],"pK1 (binding assay) [2, 3]","Ki [2, 4]",Ki [2],pKB (functional assay) [1]
"O=S(=O)(NCCCCCCCc1c[nH]cn1)NCc1ccc(Cl)cc1 [Example 38, N-[7-(4(5)-Imidazoyl)heptyl]-N'-(4-chlorophenyl)methyl-sulfamide]",4.27 nM,8.15,,,
"O=S(=O)(NCCCCCCCCc1c[nH]cn1)NCc1ccc(Cl)cc1 [Example 39, N-[8-(4(5)-Imidazoyl)octyl]-N'-(4-chlorophenyl)methyl-sulfamide]",42.7 nM,,15.8 nM,,
"O=S(=O)(NCCCCc1c[nH]cn1)NCc1ccc(Cl)c(Cl)c1 [Example 41, N-[4-(4(5)-Imidazoyl)butyl]-N'-(3,4-dichlorophenyl)methyl-sulfamide]",3.89 nM,,4.27 nM,,
"O=S(=O)(NCCCCc1c[nH]cn1)NCc1cccc(Cl)c1 [Example 42, N-[4-(4(5)-Imidazoyl)butyl]-N'-(3-chlorophenyl)methyl-sulfamide]",13.8 nM,,16.2 nM,,
"O=S(=O)(NCCCCc1c[nH]cn1)NCc1ccccc1Cl [Example 43, N-[4-(4(5)-Imidazoyl)butyl]-N'-(2-chlorophenyl)methyl-sulfamide]",380 nM,,56.2 nM,,
"O=S(=O)(NCCCCc1c[nH]cn1)NCc1ccc(I)cc1 [Example 44, N-[4-(4(5)-Imidazoyl)butyl]-N'-(4-iodophenyl)methyl-sulfamide]",3.24 nM,8.68,,,
"O=S(=O)(NCCCCc1c[nH]cn1)NCc1ccc(Br)cc1 [Example 45, N-[4-(4(5)-Imidazoyl)butyl]-N'-(4-bromophenyl)methyl-sulfamide]",1.23 nM,8.71,,,
"O=S(=O)(NCCCCc1c[nH]cn1)NCc1ccc(F)cc1 [Example 46, N-[4-(4(5)-Imidazoyl)butyl]-N'-(4-fluorophenyl)methyl-sulfamide]",20 nM,7.84,,,
"O=S(=O)(NCCCCc1c[nH]cn1)NCc1ccc(C(F)(F)F)cc1 [Example 47, N-[4-(4(5)-Imidazoyl)butyl]-N'-(4-(trifluoromethyl)phenyl)methyl-sulfamide]",3.31 nM,,2.69 nM,,
"COc1ccc(CNS(=O)(=O)NCCCCc2c[nH]cn2)cc1 [Example 48, N-[4-(4(5)-Imidazoyl)butyl]-N'-(4-methoxyphenyl)methyl-sulfamide]",87.1 nM,7.58,,,
"O=S(=O)(NCCCCc1c[nH]cn1)NCc1ccc(-c2ccccc2)cc1 [Example 49, N-[4-(4(5)-Imidazoyl)butyl]-N'-(4-biphenyl)methyl-sulfamide]",4.79 nM,8.12,,,
"O=S(=O)(NCCCCc1c[nH]cn1)NCc1ccc2ccccc2c1 [Example 50, N-[4-(4(5)-Imidazoyl)butyl]-N'-2-naphthylmethyl-sulfamide]",18.6 nM,,16.6 nM,,
"O=S(=O)(NCCCCc1c[nH]cn1)NCC1CCCCC1 [Example 51, N-[4-(4(5)-Imidazoyl)butyl]-N'-cyclohexylmethyl-sulfamide]",97.7 nM,,79.4 nM,,
"O=S(=O)(CCc1ccc(Cl)cc1)NCCCc1c[nH]cn1 [Example 53, N-[3-(4(5)-Imidazoyl)propyl]-2-(4-chlorophenyl)ethanesulfonamide]",182 nM,,,56.2 nM,
"O=S(=O)(CCc1ccc(Cl)cc1)NCCCCCc1c[nH]cn1 [Example 54, N-[5-(4(5)-Imidazoyl)pentyl]-2-(4-chlorophenyl)ethanesulfonamide]",15.8 nM,,10 nM,,
O=S(=O)(CCc1ccc(Cl)cc1)NCCCCc1c[nH]cn1 [Example 55],6.03 nM,,7.76 nM,,
"O=S(=O)(NCCCc1c[nH]cn1)NCCc1ccc(Cl)cc1 [Example 56, N-[3-(4(5)-Imidazoyl)propyl]-N'-2-(4-chlorophenyl)ethyl-sulfamide]",447 nM,,138 nM,,
"O=S(=O)(NCCCCc1c[nH]cn1)NCCc1ccc(Cl)cc1 [Example 57, N-[4-(4(5)-Imidazoyl)butyl]-N'-2-(4-chlorophenyl)ethyl-sulfamide]",11 nM,,14.5 nM,,
O=S(=O)(NCCCCCCc1c[nH]cn1)NCc1ccc(Br)cc1 [Example 58],1.05 nM,,4.37 nM,,
"O=S(=O)(NCCCCCCc1c[nH]cn1)NCc1ccc(F)cc1 [Example 59, N-[6-(4(5)-Imidazoyl)hexyl]-N'-(4-fluorophenyl)methyl-sulfamide]",3.72 nM,,8.32 nM,,
"O=S(=O)(NCCCCCCc1c[nH]cn1)NCc1ccc(C(F)(F)F)cc1 [Example 60, N-[6-(4(5)-Imidazoyl)hexyl]-N'-(4-(trifluoromethyl)phenyl)methyl-sulfamide]",14.5 nM,,4.57 nM,,
"O=S(=O)(NCCCCCCc1c[nH]cn1)NCc1ccc(I)cc1 [Example 61, N-[6-(4(5)-Imidazoyl)hexyl]-N'-(4-iodophenyl)methyl-sulfamide]",,8.46,,,8.62
"O=S(=O)(NCCCCCCc1c[nH]cn1)NCc1ccc(-c2ccccc2)cc1 [Example 62, N-[6-(4(5)-Imidazoyl)hexyl]-N'-(4biphenyl)methyl-sulfamide]",7.41 nM,,5.75 nM,,
"O=S(=O)(NCCCCCc1c[nH]cn1)NCc1ccc(C(F)(F)F)cc1 [Example 63, N-[5-(4(5)-Imidazoyl)pentyl]-N'-(4-(trifluoromethyl)phenyl)methyl-sulfamide]",4.07 nM,,6.61 nM,,
"O=S(=O)(NCCCCCc1c[nH]cn1)NCc1ccc(Br)cc1 [Example 64, N-[5-(4(5)-Imidazoyl)pentyl]-N'-(4-bromophenyl)methyl-sulfamide]",3.89 nM,,5.01 nM,,
"O=S(=O)(NCCCCCc1c[nH]cn1)NCc1ccc(F)cc1 [Example 65, N-[5-(4(5)-Imidazoyl)pentyl]-N'-(4-fluorophenyl)methyl-sulfamide]",47.9 nM,,10.5 nM,,
"O=S(=O)(NCCCCCc1c[nH]cn1)NCc1ccc(I)cc1 [Example 66, N-[5-(4(5)-Imidazoyl)pentyl]-N'-(4-iodophenyl)methyl-sulfamide]",8.71 nM,,7.76 nM,,
